What all share (assay): relative viability (nuclei count vs DMSO), 5 days (fraction); higher = more cells survive
Compound in the assay “RU-SKI 43 + Trametinib”: CC[C@@H](C)CNCC(=O)N1CCC2=C([C@@H]1COC3=CC=CC(=C3)C)C=CS2 [RU-SKI 43] + CC(=O)Nc1cccc(-n2c(=O)n(C3CC3)c(=O)c3c(Nc4ccc(I)cc4F)n(C)c(=O)c(C)c32)c1 [Trametinib] (partner 0.02 µM)
An outline of the steps: (§1)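 Lung cancer cell lines in 1536-well plates were dosed by pin tool the day after seeding, either with one drug alone or with a fixed anchor-drug dose plus five library-drug doses (not always all listed) in √10 steps. After 5 days, cells were fixed and their nuclei stained in one step (final 0.05% Triton X-100, 1% formaldehyde, 1 ug/ml Hoechst), then counted on 4× images. Relative viability is the nuclei count in treated wells divided by that in vehicle wells. Values are medians of duplicate plates.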

Compound in the assay “MK-8033 + Navitoclax”: Cn1cc(-c2cnc3ccc4ccc(CS(=O)(=O)NCc5ccccn5)cc4c(=O)c3c2)cn1 [MK-8033] + CC1(C)CCC(c2ccc(Cl)cc2)=C(CN2CCN(c3ccc(C(=O)NS(=O)(=O)c4ccc(N[C@H](CCN5CCOCC5)CSc5ccccc5)c(S(=O)(=O)C(F)(F)F)c4)cc3)CC2)C1 [Navitoclax] (partner 0.5 µM)
An outline of the steps: as §1

Compound in the assay “MK-8033 + Phenformin”: Cn1cc(-c2cnc3ccc4ccc(CS(=O)(=O)NCc5ccccn5)cc4c(=O)c3c2)cn1 [MK-8033] + N=C(N)NC(=N)NCCc1ccccc1 [Phenformin] (partner 250 µM)
The procedure, abridged: as §1

Compound in the assay “MK-8033 + Olaparib”: Cn1cc(-c2cnc3ccc4ccc(CS(=O)(=O)NCc5ccccn5)cc4c(=O)c3c2)cn1 [MK-8033] + O=C(c1cc(Cc2n[nH]c(=O)c3ccccc23)ccc1F)N1CCN(C(=O)C2CC2)CC1 [Olaparib] (partner 8 µM)
An outline of the steps:
as §1

For EPLC-272H, the relative viability worked out at 0.294 with RU-SKI 43 + Trametinib (first compound 0.1 µM); 0.294 in the assay with RU-SKI 43 + Trametinib (first compound 0.3162 µM); 0.552 with RU-SKI 43 + Trametinib (first compound 1 µM); 0.296 with RU-SKI 43 + Trametinib (first compound 3.162 µM); 0.278 in the assay with RU-SKI 43 + Trametinib (first compound 10 µM); 1.12 with MK-8033 + Navitoclax (first compound 0.02 µM). Besides, the relative viability with MK-8033 + Navitoclax (first compound 0.2 µM) was 1.07; with MK-8033 + Navitoclax (first compound 0.6325 µM) it was 0.853; in the assay with MK-8033 + Navitoclax (first compound 2 µM) it was 1.08; with MK-8033 + Phenformin (first compound 0.02 µM), 0.347; with MK-8033 + Phenformin (first compound 0.06325 µM), 0.228; with MK-8033 + Phenformin (first compound 0.2 µM), 0.359. The relative viability with MK-8033 + Phenformin (first compound 0.6325 µM) was determined as 0.325; in the assay with MK-8033 + Phenformin (first compound 2 µM) it was 0.331; in the assay with MK-8033 + Olaparib (first compound 0.02 µM), 0.817; with MK-8033 + Olaparib (first compound 0.06325 µM), 0.716; with MK-8033 + Olaparib (first compound 0.2 µM) it was 0.792; with MK-8033 + Olaparib (first compound 0.6325 µM), 0.614. Also, the relative viability in the assay with MK-8033 + Olaparib (first compound 2 µM) was 0.689.
As for H3255, the relative viability turned out to be 0.664 in the assay with RU-SKI 43 + Trametinib (first compound 0.1 µM); 0.682 with RU-SKI 43 + Trametinib (first compound 0.3162 µM); 0.625 with RU-SKI 43 + Trametinib (first compound 1 µM); 0.578 in the assay with RU-SKI 43 + Trametinib (first compound 3.162 µM); 0.588 with RU-SKI 43 + Trametinib (first compound 10 µM); 0.577 with MK-8033 + Navitoclax (first compound 0.02 µM). The relative viability with MK-8033 + Navitoclax (first compound 0.06325 µM) turned out to be 0.446; with MK-8033 + Navitoclax (first compound 0.2 µM) it was 0.441; in the assay with MK-8033 + Navitoclax (first compound 0.6325 µM), 0.418; with MK-8033 + Navitoclax (first compound 2 µM) it was 0.485; with MK-8033 + Phenformin (first compound 0.02 µM), 0.341; in the assay with MK-8033 + Phenformin (first compound 0.06325 µM), 0.364. In addition, the relative viability in the assay with MK-8033 + Phenformin (first compound 0.2 µM) came out at 0.335; with MK-8033 + Phenformin (first compound 0.6325 µM) it was 0.326; in the assay with MK-8033 + Phenformin (first compound 2 µM), 0.37; with MK-8033 + Olaparib (first compound 0.02 µM) it was 0.567; with MK-8033 + Olaparib (first compound 0.06325 µM), 0.504; with MK-8033 + Olaparib (first compound 0.2 µM), 0.561. In addition, the relative viability with MK-8033 + Olaparib (first compound 0.6325 µM) is 0.57; with MK-8033 + Olaparib (first compound 2 µM), 0.537.
With HARA, the relative viability with RU-SKI 43 + Trametinib (first compound 0.1 µM) turned out to be 0.507; with RU-SKI 43 + Trametinib (first compound 0.3162 µM) it was 0.806; with RU-SKI 43 + Trametinib (first compound 1 µM), 1.02; in the assay with RU-SKI 43 + Trametinib (first compound 3.162 µM) it was 0.936; with RU-SKI 43 + Trametinib (first compound 10 µM), 0.561; with MK-8033 + Navitoclax (first compound 0.02 µM) it was 1.1. The relative viability stood at 1.14 with MK-8033 + Navitoclax (first compound 0.06325 µM); 1.15 with MK-8033 + Navitoclax (first compound 0.2 µM); 1.1 in the assay with MK-8033 + Navitoclax (first compound 0.6325 µM); 1.16 with MK-8033 + Navitoclax (first compound 2 µM); 0.477 in the assay with MK-8033 + Phenformin (first compound 0.02 µM); 0.406 in the assay with MK-8033 + Phenformin (first compound 0.06325 µM). The relative viability is 0.396 with MK-8033 + Phenformin (first compound 0.2 µM); 0.374 with MK-8033 + Phenformin (first compound 0.6325 µM); 0.422 with MK-8033 + Phenformin (first compound 2 µM); 0.558 with MK-8033 + Olaparib (first compound 0.02 µM); 0.542 with MK-8033 + Olaparib (first compound 0.06325 µM); 0.761 in the assay with MK-8033 + Olaparib (first compound 0.2 µM). Also, the values for the relative viability in the assay with MK-8033 + Olaparib (first compound 0.6325 µM) and in the assay with MK-8033 + Olaparib (first compound 2 µM) were 0.732 and 0.639, respectively.
Turning to HCC-15, the relative viability amounted to 0.41 in the assay with RU-SKI 43 + Trametinib (first compound 0.1 µM); 0.373 with RU-SKI 43 + Trametinib (first compound 0.3162 µM); 0.37 with RU-SKI 43 + Trametinib (first compound 1 µM); 0.384 in the assay with RU-SKI 43 + Trametinib (first compound 3.162 µM); 0.336 with RU-SKI 43 + Trametinib (first compound 10 µM); 0.744 in the assay with MK-8033 + Navitoclax (first compound 0.02 µM). Besides, the relative viability in the assay with MK-8033 + Navitoclax (first compound 0.06325 µM) came out at 0.706; with MK-8033 + Navitoclax (first compound 0.2 µM), 0.679; in the assay with MK-8033 + Navitoclax (first compound 0.6325 µM) it was 0.668; with MK-8033 + Navitoclax (first compound 2 µM), 0.668; in the assay with MK-8033 + Phenformin (first compound 0.02 µM), 0.511; in the assay with MK-8033 + Phenformin (first compound 0.06325 µM), 0.467. Also, the relative viability turned out to be 0.421 in the assay with MK-8033 + Phenformin (first compound 0.2 µM); 0.45 with MK-8033 + Phenformin (first compound 0.6325 µM); 0.482 with MK-8033 + Phenformin (first compound 2 µM); 0.807 in the assay with MK-8033 + Olaparib (first compound 0.02 µM); 0.611 in the assay with MK-8033 + Olaparib (first compound 0.06325 µM); 0.737 with MK-8033 + Olaparib (first compound 0.2 µM). The relative viability was determined as 0.67 with MK-8033 + Olaparib (first compound 0.6325 µM) and 0.529 with MK-8033 + Olaparib (first compound 2 µM).
